The compounds below were run against PARP-1 (poly[ADP-ribose] polymerase 1) enzyme (Homo sapiens (Human), UniProt P09874) (assay: PARP-1 (poly[ADP-ribose] polymerase 1) enzyme inhibitory ability, Trevigen assay kit). Settings: 1 nM compound; read-out: PAR P-1 Inhibitory ability at 1 nM.
Assay type: biochemical
How it was run: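 After the 1 hour PARP reaction, wells were washed with PBS containing 0.1% triton X-100 and then PBS. Strep-HRP (50 μL) was bound for 1 hour, wells washed again, and 50 μL of TACS-sapphire substrate developed 15 minutes in the dark. Reactions were stopped with 50 μL of 5% phosphoric acid and absorbance read at 450 nm on a Victor3 reader.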

Sequence of PARP-1 (poly[ADP-ribose] polymerase 1) enzyme (P09874 whole entry): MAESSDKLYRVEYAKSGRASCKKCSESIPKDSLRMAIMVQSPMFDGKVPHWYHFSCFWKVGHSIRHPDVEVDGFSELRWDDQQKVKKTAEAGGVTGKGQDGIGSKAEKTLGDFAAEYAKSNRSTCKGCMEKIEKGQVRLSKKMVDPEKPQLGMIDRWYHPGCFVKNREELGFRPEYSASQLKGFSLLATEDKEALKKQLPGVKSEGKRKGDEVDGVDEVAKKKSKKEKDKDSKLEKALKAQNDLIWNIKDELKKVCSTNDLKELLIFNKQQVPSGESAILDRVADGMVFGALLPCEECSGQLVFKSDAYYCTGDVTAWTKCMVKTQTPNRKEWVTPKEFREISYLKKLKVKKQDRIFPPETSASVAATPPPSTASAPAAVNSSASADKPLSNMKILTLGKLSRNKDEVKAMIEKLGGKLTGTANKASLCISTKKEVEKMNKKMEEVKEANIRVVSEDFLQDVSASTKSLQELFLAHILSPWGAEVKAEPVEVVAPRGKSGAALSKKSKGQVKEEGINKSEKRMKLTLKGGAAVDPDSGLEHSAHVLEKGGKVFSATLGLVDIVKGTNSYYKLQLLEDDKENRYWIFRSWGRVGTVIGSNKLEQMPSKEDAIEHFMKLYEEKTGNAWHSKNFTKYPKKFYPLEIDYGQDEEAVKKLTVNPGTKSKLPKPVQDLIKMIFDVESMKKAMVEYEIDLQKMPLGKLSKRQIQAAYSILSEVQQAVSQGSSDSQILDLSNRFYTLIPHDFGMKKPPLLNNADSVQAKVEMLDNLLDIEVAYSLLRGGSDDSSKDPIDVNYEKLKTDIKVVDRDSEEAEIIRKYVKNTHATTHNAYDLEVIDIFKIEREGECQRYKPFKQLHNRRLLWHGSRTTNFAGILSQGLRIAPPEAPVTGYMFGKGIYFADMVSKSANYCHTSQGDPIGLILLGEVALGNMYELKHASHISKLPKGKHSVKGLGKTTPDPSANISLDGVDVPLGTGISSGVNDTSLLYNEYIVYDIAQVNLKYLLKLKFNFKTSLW

Row | Structure (SMILES) | inhibition at 0.001 µM [%]
1 | Cc1ccc(F)c2c(=O)[nH]c(CCC(=O)N3CCN(c4ccc(C#N)cn4)CC3)cc12 [Example 123, 6-(4-(3-(8-fluoro-5-methyl-1-oxo-1,2-dihydroisoquinolin-3-yl)propanoyl)piperazin-1-yl)nicotinonitrile] | < 50
2 | Cc1ccc(F)c2c(=O)[nH]c(CCC(=O)N3CCN(c4ccc(C#N)nc4)CC3)cc12 [Example 124, 5-(4-(3-(8-fluoro-5-methyl-1-oxo-1,2-dihydroisoquinolin-3-yl)propanoyl)piperazin-1-yl)picolinonitrile] | < 50
3 | Cc1ccc(F)c2c(=O)[nH]c(CCC(=O)N3CCN(c4ccc(C#N)c(F)c4)CC3)cc12 [Example 126, 2-fluoro-4-(4-(3-(8-fluoro-5-methyl-1-oxo-1,2-dihydroisoquinolin-3-yl)propanoyl)piperazin-1-yl)benzonitrile] | < 50
4 | Cc1ccc(F)c2c(=O)[nH]c(CCC(=O)N3CCN(c4ccccc4C#N)CC3)cc12 [Example 127, 2-(4-(3-(8-fluoro-5-methyl-1-oxo-1,2-dihydroisoquinolin-3-yl)propanoyl)piperazin-1-yl)benzonitrile] | < 50
5 | Cc1ccc(F)c2c(=O)[nH]c(CCC(=O)N3CCN(c4ccc(C#N)cc4F)CC3)cc12 [Example 128, 3-fluoro-4-(4-(3-(8-fluoro-5-methyl-1-oxo-1,2-dihydroisoquinolin-3-yl)propanoyl)piperazin-1-yl)benzonitrile] | < 50
6 | Cc1ccc(F)c2c(=O)[nH]c(CCC(=O)N3CCN(c4cc(C#N)ccc4F)CC3)cc12 [Example 133, 4-fluoro-3-(4-(3-(8-fluoro-5-methyl-1-oxo-1,2-dihydroisoquinolin-3-yl)propanoyl)piperazin-1-yl)benzonitrile] | < 50

Further lines, results first:

Row | inhibition at 0.001 µM [%] | Structure (SMILES)
7 | < 50 | Cc1ccc(F)c2c(=O)[nH]c(CCC(=O)N3CC=C(c4ccc(F)cc4)CC3)cc12 [Example 125, 8-fluoro-3-(3-(4-(4-fluorophenyl)-3,6-dihydropyridin-1(2H)-yl)-3-oxopropyl)-5-methylisoquinolin-1(2H)-one]
8 | < 50 | Cc1ccc(F)c2c(=O)[nH]c(CCC(=O)N3CC=C(c4ccc(F)nc4)CC3)cc12 [Example 129]
9 | < 50 | Cc1ccc(F)c2c(=O)[nH]c(CCC(=O)N3CC=C(c4ccc(F)cn4)CC3)cc12 [Example 130, 8-fluoro-3-(3-(5-fluoro-3′,6′-dihydro-[2,4′-bipyridine]-1′(2′H)-yl)-3-oxopropyl)-5-methylisoquinolin-1(2H)-one]
10 | < 50 | Cc1ccc(F)c2c(=O)[nH]c(CCC(=O)N3CCN(c4ccc(Cl)cc4)CC3)cc12 [Example 131, 3-(3-(4-(4-chlorophenyl)piperazin-1-yl)-3-oxopropyl)-8-fluoro-5-methylisoquinolin-1(2H)-one]
11 | < 50 | Cc1ccc(F)c2c(=O)[nH]c(CCC(=O)N3CCN(c4ccc(F)cc4F)CC3)cc12 [Example 132, 3-(3-(4-(2,4-difluorophenyl)piperazin-1-yl)-3-oxopropyl)-8-fluoro-5-methylisoquinolin-1(2H)-one]
12 | < 50 | Cc1ccc(F)c2c(=O)[nH]c(CCC(=O)N3CCN(c4cc(F)ccc4C#N)CC3)cc12 [Example 134, 4-fluoro-2-(4-(3-(8-fluoro-5-methyl-1-oxo-1,2-dihydroisoquinolin-3-yl)propanoyl)piperazin-1-yl)benzonitrile]
13 | < 50 | Cc1ccc(F)c2c(=O)[nH]c(CCC(=O)N3CCN(c4ccc(F)c(C#N)c4)CC3)cc12 [Example 135, 2-fluoro-5-(4-(3-(8-fluoro-5-methyl-1-oxo-1,2-dihydroisoquinolin-3-yl)propanoyl)piperazin-1-yl)benzonitrile]
14 | < 50 | Cc1ccc(F)c2c(=O)[nH]c(CCC(=O)N3CCN(c4ccc(F)cc4C#N)CC3)cc12 [Example 136, 5-fluoro-2-(4-(3-(8-fluoro-5-methyl-1-oxo-1,2-dihydroisoquinolin-3-yl)propanoyl)piperazin-1-yl)benzonitrile]

Same assay, conditions: PARP-1 enzyme activity

Row | IC50 [nM] | Structure (SMILES)
15 | 1.38 | Cc1ccc(F)c2c(=O)[nH]c(CCC(=O)N3CCN(c4ccc(C#N)cc4F)CC3)cc12 [Example 128, 3-fluoro-4-(4-(3-(8-fluoro-5-methyl-1-oxo-1,2-dihydroisoquinolin-3-yl)propanoyl)piperazin-1-yl)benzonitrile]

Source: patent publication US12459899B2, “Isoquinolinone derivatives, method for preparing the same, and pharmaceutical composition for preventing or treating poly(ADP-ribose) polymerase-1-related diseases, comprising the same as active ingredient” (DIGMBIO. INC., priority 2019, dated 2025)
